In patent publication US20160158200A1, “Combinations of Hepatitis C Virus Inhibitors” (priority 2013, published 2016):

What was measured:
[1] = system: HCV genotype 1a Y93H variant with tyrosine 93 changed to histidine in the NS5A protein; experiment: microbe, parasite or virus in culture; type: cell-based; details: genotype 1a Y93H replicon; test compound titrated with compound N47 fixed at 200 nM versus singly
Outline: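 In an HCV genotype 1a replicon cell-based assay carrying the NS5A Y93H substitution, BMS-790052 was tested alone and in combination with a fixed amount of a second test compound. The combinations were examined for synergistic activity.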

[2] = system: HCV genotype 1a L31V variant with leucine 31 changed to valine in the NS5A protein; experiment: microbe, parasite or virus in culture; type: cell-based; details: genotype 1a L31V replicon; test compound titrated with compound N47 fixed at 200 nM versus singly

O=C(Nc1ccc(/C=C/c2ccc(NC(=O)[C@@H]3CCCN3C(=O)Cc3ccccc3)cc2)cc1)[C@@H]1CCCN1C(=O)Cc1ccccc1
Fold-Synergistic G-1a (Y93H) [1]: <10 fold | Fold-Synergistic G-1a (L31V) [2]: <10 fold

O=C(Nc1ccc(-c2ccc(NC(=O)[C@@H]3CCCN3C(=O)Cc3ccccc3)cc2)cc1)[C@@H]1CCCN1C(=O)Cc1ccccc1
Fold-Synergistic G-1a (Y93H) [1]: <10 fold | Fold-Synergistic G-1a (L31V) [2]: <10 fold

O=C(Nc1ccc(/C=C/c2ccc(NC(=O)[C@@H]3CCCCN3C(=O)OCc3ccccc3)cc2)cc1)[C@@H]1CCCCN1C(=O)OCc1ccccc1
Fold-Synergistic G-1a (Y93H) [1]: <10 fold | Fold-Synergistic G-1a (L31V) [2]: <10 fold

O=C(Nc1ccc(/C=C/c2ccc(NC(=O)[C@@H]3COCN3C(=O)OCc3ccccc3)cc2)cc1)[C@@H]1COCN1C(=O)OCc1ccccc1
Fold-Synergistic G-1a (Y93H) [1]: <10 fold | Fold-Synergistic G-1a (L31V) [2]: <10 fold

O=C(c1nc(Cl)cc2ccccc12)N1CCC[C@H]1c1nc2ccc(C#Cc3ccc4nc([C@@H]5CCCN5C(=O)c5nc(Cl)cc6ccccc56)[nH]c4c3)cc2[nH]1
Fold-Synergistic G-1a (Y93H) [1]: <10 fold | Fold-Synergistic G-1a (L31V) [2]: <10 fold

O=C(Nc1ccc(C#Cc2ccc(NC(=O)[C@@H]3CCCN3C(=O)CC3CC3)cc2)cc1)[C@@H]1CCCN1C(=O)CC1CC1
Fold-Synergistic G-1a (Y93H) [1]: <10 fold | Fold-Synergistic G-1a (L31V) [2]: <10 fold

O=C1[C@@H]2CCCN2C(=O)C(c2ccccc2)N1c1ccc(/C=C/c2ccc(N3C(=O)[C@@H]4CCCN4C(=O)C3c3ccccc3)cc2)cc1 (stereo partly drawn)
Fold-Synergistic G-1a (Y93H) [1]: <10 fold | Fold-Synergistic G-1a (L31V) [2]: <10 fold

CN(C)[C@@H](C(=O)N1CCC[C@H]1C(=O)Nc1ccc(C#Cc2ccc(NC(=O)[C@@H]3CCCN3C(=O)[C@@H](c3ccccc3)N(C)C)cc2)cc1)c1ccccc1
Fold-Synergistic G-1a (Y93H) [1]: <10 fold | Fold-Synergistic G-1a (L31V) [2]: <10 fold

C[C@H](NC(=O)[C@@H](O)c1ccccc1)C(=O)Nc1ccc(-c2cnc(-c3ccc(NC(=O)[C@H](C)NC(=O)[C@@H](O)c4ccccc4)cc3)o2)cc1
Fold-Synergistic G-1a (Y93H) [1]: <10 fold | Fold-Synergistic G-1a (L31V) [2]: <10 fold

O=C1C(c2ccccc2)N(c2ccc(-c3cnc(-c4ccc(N5C(=O)C6CCCN6C(=O)C5c5ccccc5)cc4)o3)cc2)C(=O)C2CCCN12 (stereo not drawn)
Fold-Synergistic G-1a (Y93H) [1]: <10 fold | Fold-Synergistic G-1a (L31V) [2]: <10 fold

O=C(Nc1ccc(C#Cc2ccc(NC(=O)[C@@H]3CCCN3C(=O)Cc3ccccc3)cn2)nc1)[C@@H]1CCCN1C(=O)Cc1ccccc1
Fold-Synergistic G-1a (Y93H) [1]: <10 fold | Fold-Synergistic G-1a (L31V) [2]: <10 fold

C[C@](O)(C(=O)N1CCC[C@H]1c1nc2ccc(-c3ccc(-c4ccc5nc([C@@H]6CCCN6C(=O)[C@](C)(O)c6ccccc6)[nH]c5c4)o3)cc2[nH]1)c1ccccc1
Fold-Synergistic G-1a (Y93H) [1]: <10 fold | Fold-Synergistic G-1a (L31V) [2]: <10 fold

CN1CCN(C(C(=O)N2CCC[C@H]2C(=O)Nc2ccc(C#Cc3ccc(NC(=O)[C@@H]4CCCN4C(=O)C(c4ccccc4)N4CCN(C)CC4)cc3)cc2)c2ccccc2)CC1 (stereo partly drawn)
Fold-Synergistic G-1a (Y93H) [1]: <10 fold | Fold-Synergistic G-1a (L31V) [2]: <10 fold

CN1CCN(C(C(=O)N2CCC[C@H]2C(=O)Nc2ccc(-c3cnc(-c4ccc(NC(=O)[C@@H]5CCCN5C(=O)C(c5ccccc5)N5CCN(C)CC5)cc4)o3)cc2)c2ccccc2)CC1 (stereo partly drawn)
Fold-Synergistic G-1a (Y93H) [1]: <10 fold | Fold-Synergistic G-1a (L31V) [2]: <10 fold

COc1cccc2c(C(=O)N3CCC[C@H]3C(=O)Nc3ccc(-c4ncc(-c5ccc6nc([C@@H]7CCCN7C(=O)c7nc(Cl)cc8c(OC)cccc78)[nH]c6c5)o4)cc3)nc(Cl)cc12
Fold-Synergistic G-1a (Y93H) [1]: <10 fold | Fold-Synergistic G-1a (L31V) [2]: <10 fold

CN(C)[C@@H](C(=O)N1CCC[C@H]1C(=O)Nc1cccc(-c2ncc(-c3ccc4nc([C@@H]5CCCN5C(=O)[C@@H](c5ccccc5)N(C)C)[nH]c4c3)o2)c1)c1ccccc1
Fold-Synergistic G-1a (Y93H) [1]: <10 fold | Fold-Synergistic G-1a (L31V) [2]: <10 fold

O=C(Cc1ccccc1)N1CCC[C@H]1c1nc2ccc(-c3cnc([C@@H]4CCCN4C(=O)Cc4ccccc4)o3)cc2[nH]1
Fold-Synergistic G-1a (Y93H) [1]: <10 fold | Fold-Synergistic G-1a (L31V) [2]: <10 fold

CN(C)[C@@H](C(=O)Nc1cccc(-c2ncc(-c3ccc4nc([C@@H]5CCCN5C(=O)[C@@H](c5ccccc5)N(C)C)[nH]c4c3)o2)c1)c1ccccc1
Fold-Synergistic G-1a (Y93H) [1]: <10 fold | Fold-Synergistic G-1a (L31V) [2]: <10 fold

CN(C)[C@@H](C(=O)N1CCC[C@H]1c1nc2ccc(-c3ncc([C@@H]4CCCN4C(=O)[C@@H](c4ccccc4)N(C)C)o3)cc2[nH]1)c1ccccc1
Fold-Synergistic G-1a (Y93H) [1]: <10 fold | Fold-Synergistic G-1a (L31V) [2]: <10 fold

CN(C)C(C(=O)N1CCC[C@H]1c1nc(-c2ccc3nc([C@@H]4CCCN4C(=O)C(c4ccccc4)N(C)C)[nH]c3c2)c[nH]1)c1ccccc1 (stereo partly drawn)
Fold-Synergistic G-1a (Y93H) [1]: <10 fold | Fold-Synergistic G-1a (L31V) [2]: <10 fold

Cc1nc2cccc(-c3ncc(-c4ccc5nc([C@@H]6CCCN6C(=O)[C@@H](c6ccccc6)N(C)C)[nH]c5c4)o3)c2[nH]1
Fold-Synergistic G-1a (Y93H) [1]: <10 fold | Fold-Synergistic G-1a (L31V) [2]: <10 fold

COc1cccc2c(C(=O)N3CCC[C@H]3c3nc4ccc(-c5cnc(-c6cccc(O)c6)o5)cc4[nH]3)nc(Cl)cc12
Fold-Synergistic G-1a (Y93H) [1]: <10 fold | Fold-Synergistic G-1a (L31V) [2]: <10 fold

Cc1nc2ccc(-c3cnc(-c4ccc5nc([C@@H]6CCCN6C(=O)[C@@H](c6ccccc6)N(C)C)[nH]c5c4)o3)cc2[nH]1
Fold-Synergistic G-1a (Y93H) [1]: <10 fold | Fold-Synergistic G-1a (L31V) [2]: <10 fold

COC(=O)N[C@@H](C(=O)N1CCC[C@H]1c1nc2ccc(C(=O)c3ccc4nc([C@@H]5CCCN5C(=O)[C@H](NC(=O)OC)c5ccccc5)[nH]c4c3)cc2[nH]1)c1ccccc1
Fold-Synergistic G-1a (Y93H) [1]: <10 fold | Fold-Synergistic G-1a (L31V) [2]: <10 fold

COC(=O)N[C@@H](C(=O)N1CCC[C@H]1c1nc2ccc(-c3ncc(-c4ccc(N5CCOCC5)cc4)o3)cc2[nH]1)c1ccccc1
Fold-Synergistic G-1a (Y93H) [1]: <10 fold | Fold-Synergistic G-1a (L31V) [2]: <10 fold

COC(=O)N[C@@H](C(=O)N1CCC[C@H]1c1ncc(-c2ccc(-c3ccc(-c4cnc([C@@H]5CCCN5C(=O)[C@H](NC(=O)OC)c5ccccc5)[nH]4)cc3)cc2)[nH]1)c1ccccc1
Fold-Synergistic G-1a (Y93H) [1]: <10 fold | Fold-Synergistic G-1a (L31V) [2]: >10 fold

CN(C)[C@@H](C(=O)N1CCC[C@H]1c1nc2ccc(-c3ccc4nc([C@@H]5CCCN5C(=O)[C@@H](c5ccccc5)N(C)C)[nH]c4c3)cc2[nH]1)c1ccccc1
Fold-Synergistic G-1a (Y93H) [1]: <10 fold | Fold-Synergistic G-1a (L31V) [2]: <10 fold

COC(=O)N[C@@H](C(=O)N1CCC[C@H]1c1ncc(-c2ccc(-c3ccc(-c4cnc([C@@H]5CCCN5C(=O)[C@H]5CCCO5)[nH]4)cc3)cc2)[nH]1)c1ccccc1
Fold-Synergistic G-1a (Y93H) [1]: <10 fold | Fold-Synergistic G-1a (L31V) [2]: <10 fold

COC(=O)N[C@@H](C(=O)N1CCC[C@H]1c1nc(-c2ccc(Oc3ccc(-c4c[nH]c([C@@H]5CCCN5C(=O)[C@H](NC(=O)OC)c5ccccc5)n4)cc3)cc2)c[nH]1)c1ccccc1
Fold-Synergistic G-1a (Y93H) [1]: <10 fold | Fold-Synergistic G-1a (L31V) [2]: <10 fold

COC(=O)N[C@@H](C(=O)N1CCC[C@H]1c1nc(-c2ccc(Oc3cccc(-c4cnc([C@@H]5CCCN5C(=O)[C@H](NC(=O)OC)c5ccccc5)[nH]4)c3)cc2)c[nH]1)c1ccccc1
Fold-Synergistic G-1a (Y93H) [1]: <10 fold | Fold-Synergistic G-1a (L31V) [2]: <10 fold

CN(C)[C@@H](C(=O)N1CCC[C@H]1c1nc(-c2ccc(COCc3ccc(-c4c[nH]c([C@@H]5CCCN5C(=O)[C@@H](c5ccccc5)N(C)C)n4)cc3)cc2)c[nH]1)c1ccccc1
Fold-Synergistic G-1a (Y93H) [1]: <10 fold | Fold-Synergistic G-1a (L31V) [2]: <10 fold

CN(C)[C@@H](C(=O)N1CCC[C@H]1c1nc(-c2ccc(COc3ccc(-c4c[nH]c([C@@H]5CCCN5C(=O)[C@@H](c5ccccc5)N(C)C)n4)cc3)cc2)c[nH]1)c1ccccc1
Fold-Synergistic G-1a (Y93H) [1]: <10 fold | Fold-Synergistic G-1a (L31V) [2]: <10 fold

COC(=O)N[C@@H](C(=O)N1CCC[C@H]1c1nc(-c2ccc(CCc3ccc(-c4c[nH]c([C@@H]5CCCN5C(=O)[C@H](NC(=O)OC)c5ccccc5)n4)cc3)cc2)c[nH]1)c1ccccc1
Fold-Synergistic G-1a (Y93H) [1]: <10 fold | Fold-Synergistic G-1a (L31V) [2]: <10 fold

COC(=O)N[C@H](C(=O)N1CCC[C@H]1C(=O)NC1Cc2ccc(-c3ccc4c(c3)CC(NC(=O)[C@@H]3CCCN3C(=O)[C@@H](NC(=O)OC)C(C)C)C4)cc2C1)C(C)C (stereo partly drawn)
Fold-Synergistic G-1a (Y93H) [1]: >10 fold | Fold-Synergistic G-1a (L31V) [2]: >10 fold

COC(=O)N[C@H](C(=O)N1[C@@H](C)CC[C@H]1c1ncc(-c2ccc3c(c2)CCc2cc(-c4cnc([C@@H]5CC[C@H](C)N5C(=O)[C@@H](NC(=O)OC)C(C)C)[nH]4)ccc2-3)[nH]1)C(C)C
Fold-Synergistic G-1a (Y93H) [1]: >100 fold | Fold-Synergistic G-1a (L31V) [2]: >100 fold

COC(=O)N[C@H](C(=O)N1[C@@H]2C[C@@H]2C[C@H]1c1cnc(-c2ccc(C#Cc3ccc(-c4ncc([C@@H]5C[C@H]6C[C@H]6N5C(=O)[C@@H](NC(=O)OC)C(C)C)[nH]4)cc3)cc2)[nH]1)C(C)C
Fold-Synergistic G-1a (Y93H) [1]: >10 fold | Fold-Synergistic G-1a (L31V) [2]: <10 fold

COC(=O)N[C@H](C(=O)N1[C@@H](C)CC[C@H]1c1ncc(-c2ccc3c(c2)Cc2cc(-c4cnc([C@@H]5CC[C@H](C)N5C(=O)[C@@H](NC(=O)OC)C(C)C)[nH]4)ccc2-3)[nH]1)C(C)C
Fold-Synergistic G-1a (Y93H) [1]: >100 fold | Fold-Synergistic G-1a (L31V) [2]: >100 fold

COC(=O)NC(C(=O)N1[C@@H](C)CC[C@H]1c1ncc(-c2ccc(-c3cnc(-c4cnc([C@@H]5CC[C@H](C)N5C(=O)[C@@H](NC(=O)OC)[C@H]5C[C@@H](C)O[C@@H](C)C5)[nH]4)c4cccn34)cc2)[nH]1)[C@H]1C[C@@H](C)O[C@@H](C)C1 (stereo partly drawn)
Fold-Synergistic G-1a (Y93H) [1]: >100 fold | Fold-Synergistic G-1a (L31V) [2]: >10 fold

COC(=O)N[C@H](C(=O)N1CC2(CC2)C[C@H]1c1nc(-c2ccc3c(c2)C(F)(F)c2cc(-c4ccc5nc([C@@H]6[C@H]7CC[C@H](C7)N6C(=O)[C@@H](NC(=O)OC)C(C)C)[nH]c5c4)ccc2-3)c[nH]1)C(C)C
Fold-Synergistic G-1a (Y93H) [1]: >100 fold | Fold-Synergistic G-1a (L31V) [2]: >10 fold
